Measurements from PMC10689823, “Discovery of a Drug-like, Natural Product-Inspired DCAF11 Ligand Chemotype” (Nature Communications, 2023).

Molecular target: BRD4S-TagBFP reporter (Homo sapiens, UniProt O60885)
Test: FACS-based CRISPR/Cas9 BRD4 protein stability screen
Conditions: Mageck_Gene level
Method: The virus containing supernatant was cleared of cellular debris by filtration through a 0.45-µm PES filter and used to transduce KBM7 BRD4-BFP reporter cells harboring a doxycycline inducible Cas9 allele at a multiplicity of infection (MOI) of 0.05 and 1,000-fold library representation. Library-transduced cells were selected with G418 (1 mg ml^−1, Gibco) for 14 days, expanded and Cas9 expression was induced with DOX (0.4 µg ml^−1, PanReac AppliChem).
Cells were washed with and stored in FACS buffer (PBS containing 5% FBS and 1 mM EDTA) at 4 °C overnight. The next day, cells were strained trough a 35 µm nylon mesh and sorted on a BD FACSAria™ Fusion (BD Biosciences) using a 85 µm nozzle. Aggregates, dead (ZombieNIR positive), Cas9-negative (GFP) and sgRNA library-negative (Thy1.1-APC) cells were excluded, and the remaining cells were sorted based on their BRD4-BFP and mCherry levels into BRD4^HIGH (10% of cells), BRD4^MID (30%) and BRD4^LOW (10%) fractions. For each sample, cells corresponding to at least 2,000-fold library representation were sorted per replicate.
Next-generation sequencing (NGS) libraries of sorted cell fractions were prepared as previously described[25]. In brief, genomic DNA was isolated by cell lysis (10 mM Tris-HCl, 150 mM NaCl, 10 mM EDTA, 0.1% SDS), proteinase K treatment (New England Biolabs) and DNAse-free RNAse digest (Thermo Fisher Scientific), followed by two rounds of phenol extraction and 2-propanol precipitation. Isolated genomic DNA was subjected to several freeze–thaw cycles before nested polymerase chain reaction (PCR) amplification of the sgRNA cassette.
Barcoded NGS libraries for each sorted population were generated using a two-step PCR protocol using AmpliTaq Gold (Invitrogen). The resulting PCR products were purified using Mag-Bind® TotalPure NGS beads (Omega Bio-tek) and amplified in a second PCR introducing the standard Illumina adapters. The final Illumina libraries were bead-purified, pooled and sequenced on a HiSeq 3500 platform (Illumina).
Screen analysis was performed as previously described[25]. Briefly, sequencing reads were quantified using the crispr-process-nf Nextflow workflow, available at https://github.com/ZuberLab/crispr-process-nf/tree/566f6d46bbcc2a3f49f51bbc96b9820f408ec4a3. For statistical analysis, we used the crispr-mageck-nf Nextflow workflow, available at https://github.com/ZuberLab/crispr-mageck-nf/tree/c75a90f670698bfa78bfd8be786d6e5d6d4fc455. To calculate gene-level enrichment, the sorted populations (BRD4^HIGH or BRD4^LOW) were compared to the BRD4^MID populations in MAGeCK (0.5.9)[46], using median normalized read counts.

Cc1sc2c(c1C)C(c1ccc(Cl)cc1)=NC(CC(=O)NCCOCCOCCOCCOc1c(Br)cc(C=C3C(=O)Nc4ccc(Br)cc43)cc1Br)c1nnc(C)n1-2 (centres unmarked) [Compound 10]
High_lfc (Gene DCAF1): 0.07
High_logP (Gene DCAF1): 0.4
Low_lfc (Gene DCAF1): 0.08
Low_logP (Gene DCAF1): 0.47
High_lfc (Gene DCAF4): 0.04
High_logP (Gene DCAF4): 0.26
Low_lfc (Gene DCAF4): 0.5
Low_logP (Gene DCAF4): 1.14
High_lfc (Gene DCAF5): -0.31
High_logP (Gene DCAF5): 0.03
Low_lfc (Gene DCAF5): -0.2
Low_logP (Gene DCAF5): 0.09
High_lfc (Gene DCAF6): -0.27
High_logP (Gene DCAF6): 0.06
Low_lfc (Gene DCAF6): 0.14
Low_logP (Gene DCAF6): 0.62
High_lfc (Gene DCAF7): -0.06
High_logP (Gene DCAF7): 0.19
Low_lfc (Gene DCAF7): 0.05
Low_logP (Gene DCAF7): 0.29
High_lfc (Gene DCAF8): -0.08
High_logP (Gene DCAF8): 0.19
Low_lfc (Gene DCAF8): 0.22
Low_logP (Gene DCAF8): 0.46
High_lfc (Gene DCAF12): -0.19
High_logP (Gene DCAF12): 0
Low_lfc (Gene DCAF12): -0.38
Low_logP (Gene DCAF12): 0
High_lfc (Gene DCAF13): -0.32
High_logP (Gene DCAF13): 0.14
Low_lfc (Gene DCAF13): -0.17
Low_logP (Gene DCAF13): 0.23
High_lfc (Gene DCAF15): 0.02
High_logP (Gene DCAF15): 0.29
Low_lfc (Gene DCAF15): 0.34
High_lfc (Gene DCAF16): 0.41
High_logP (Gene DCAF16): 1.29
Low_lfc (Gene DCAF16): 0.15
Low_logP (Gene DCAF16): 0.08
High_lfc (Gene DCAF17): -0.4
High_logP (Gene DCAF17): 0.08
Low_lfc (Gene DCAF17): -0.25
Low_logP (Gene DCAF17): 0.08
High_lfc (Gene DCUN1D1): -0.16
High_logP (Gene DCUN1D1): 0.04
Low_lfc (Gene DCUN1D1): -0.14
Low_logP (Gene DCUN1D1): 0.41
High_lfc (Gene DCUN1D2): -0.24
High_logP (Gene DCUN1D2): 0.01
Low_lfc (Gene DCUN1D2): 0.34
Low_logP (Gene DCUN1D2): 0.85
High_lfc (Gene DCUN1D3): 0.11
High_logP (Gene DCUN1D3): 0.22
Low_lfc (Gene DCUN1D3): 0.24
Low_logP (Gene DCUN1D3): 1.2
High_lfc (Gene DCUN1D4): -0.01
High_logP (Gene DCUN1D4): 0.07
Low_lfc (Gene DCUN1D4): 0.03
Low_logP (Gene DCUN1D4): 0.28
High_lfc (Gene DCUN1D5): 0.22
High_logP (Gene DCUN1D5): 0.38
Low_lfc (Gene DCUN1D5): -0.23
Low_logP (Gene DCUN1D5): 0.04
High_lfc (Gene DDA1): 0.21
High_logP (Gene DDA1): 0.55
Low_lfc (Gene DDA1): -0.07
Low_logP (Gene DDA1): 0.09
High_lfc (Gene DDB1): 1.6
Low_lfc (Gene DDB1): -0.07
Low_logP (Gene DDB1): 0.14
High_lfc (Gene DDB2): -0.17
High_logP (Gene DDB2): 0.1
Low_lfc (Gene DDB2): 0.02
Low_logP (Gene DDB2): 0.41
High_lfc (Gene DET1): 0.13
High_logP (Gene DET1): 0.2
Low_lfc (Gene DET1): 0.1
Low_logP (Gene DET1): 0.55
High_lfc (Gene DHX15): 0.88
High_logP (Gene DHX15): 3.08
Low_lfc (Gene DHX15): 0.33
Low_logP (Gene DHX15): 0.15
High_lfc (Gene DTL): -0.32
High_logP (Gene DTL): 0.12
Low_lfc (Gene DTL): 0.6
Low_logP (Gene DTL): 1.9
High_lfc (Gene ECT2L): 0.08
High_logP (Gene ECT2L): 0.35
Low_lfc (Gene ECT2L): 0.18
Low_logP (Gene ECT2L): 0.73
High_lfc (Gene EED): -0.14
High_logP (Gene EED): 0.1
Low_lfc (Gene EED): -0.33
Low_logP (Gene EED): 0.06
High_lfc (Gene EIF4A1): -0.23
High_logP (Gene EIF4A1): 0.17
Low_lfc (Gene EIF4A1): 0.22
Low_logP (Gene EIF4A1): 0.27
High_lfc (Gene EIF4A3): -0.5
High_logP (Gene EIF4A3): 0.12
Low_lfc (Gene EIF4A3): 0.83
Low_logP (Gene EIF4A3): 3.36
High_lfc (Gene ELOA2): 0.27
High_logP (Gene ELOA2): 1.5
Low_lfc (Gene ELOA2): -0.21
Low_logP (Gene ELOA2): 0.02
High_lfc (Gene ELOA3): -0.14
High_logP (Gene ELOA3): 0.04
Low_lfc (Gene ELOA3): -0.68
Low_logP (Gene ELOA3): 0
High_lfc (Gene ELOA3D): -0.17
High_logP (Gene ELOA3D): 0.16
Low_lfc (Gene ELOA3D): -0.44
Low_logP (Gene ELOA3D): 0.05
High_lfc (Gene ELOA): 0.14
High_logP (Gene ELOA): 0.38
Low_lfc (Gene ELOA): 0.01
Low_logP (Gene ELOA): 0.08
High_lfc (Gene ELOB): 0.32
High_logP (Gene ELOB): 1.07
Low_lfc (Gene ELOB): 0.26
Low_logP (Gene ELOB): 0.54
High_lfc (Gene ELOC): 0.2
High_logP (Gene ELOC): 0.44
Low_lfc (Gene ELOC): 0.2
Low_logP (Gene ELOC): 0.9
High_lfc (Gene ENC1): -0.31
High_logP (Gene ENC1): 0
Low_lfc (Gene ENC1): -0.06
Low_logP (Gene ENC1): 0.22
High_lfc (Gene EPHA4): -0.08
High_logP (Gene EPHA4): 0.25
Low_lfc (Gene EPHA4): -0.27
Low_logP (Gene EPHA4): 0.02
High_lfc (Gene ERCC8): -0.71
High_logP (Gene ERCC8): 0.04
Low_lfc (Gene ERCC8): -0.42
Low_logP (Gene ERCC8): 0.02
High_lfc (Gene ESCO1): 0.09
High_logP (Gene ESCO1): 0.53
Low_lfc (Gene ESCO1): -0.29
Low_logP (Gene ESCO1): 0.05
High_lfc (Gene FAM9A): -0.13
High_logP (Gene FAM9A): 0.02
Low_lfc (Gene FAM9A): -0.08
Low_logP (Gene FAM9A): 0.64
High_lfc (Gene FBXL2): -0.04
High_logP (Gene FBXL2): 0.25
Low_lfc (Gene FBXL2): -0.25
Low_logP (Gene FBXL2): 0.03
High_lfc (Gene FBXL3): -0.55
High_logP (Gene FBXL3): 0
Low_lfc (Gene FBXL3): 0
Low_logP (Gene FBXL3): 0.15
High_lfc (Gene FBXL4): -0.13
High_logP (Gene FBXL4): 0.04
Low_lfc (Gene FBXL4): 0.11
Low_logP (Gene FBXL4): 0.32
High_lfc (Gene FBXL5): -0.03
High_logP (Gene FBXL5): 0.1
Low_lfc (Gene FBXL5): -0.22
Low_logP (Gene FBXL5): 0.05
High_lfc (Gene FBXL6): -0.15
High_logP (Gene FBXL6): 0.09
Low_lfc (Gene FBXL6): -0.18
Low_logP (Gene FBXL6): 0.14
High_lfc (Gene FBXL7): -0.1
High_logP (Gene FBXL7): 0.12
Low_lfc (Gene FBXL7): 0.04
Low_logP (Gene FBXL7): 0.13
High_lfc (Gene FBXL8): -0.02
High_logP (Gene FBXL8): 0.08
Low_lfc (Gene FBXL8): -0.1
Low_logP (Gene FBXL8): 0.23
High_lfc (Gene FBXL12): -0.02
High_logP (Gene FBXL12): 0.03
Low_lfc (Gene FBXL12): 0.09
Low_logP (Gene FBXL12): 0.2
High_lfc (Gene FBXL13): 0.02
High_logP (Gene FBXL13): 0.26
Low_lfc (Gene FBXL13): 0.01
Low_logP (Gene FBXL13): 0.21
High_lfc (Gene FBXL14): -0.22
High_logP (Gene FBXL14): 0.01
Low_lfc (Gene FBXL14): -0.05
Low_logP (Gene FBXL14): 0.13
High_lfc (Gene FBXL15): 0.13
High_logP (Gene FBXL15): 0.24
Low_lfc (Gene FBXL15): 0.16
Low_logP (Gene FBXL15): 0.21
High_lfc (Gene FBXL16): 0.23
High_logP (Gene FBXL16): 0.22
Low_lfc (Gene FBXL16): 0.16
Low_logP (Gene FBXL16): 0.37
High_lfc (Gene FBXL17): -0.14
High_logP (Gene FBXL17): 0.03
Low_lfc (Gene FBXL17): -0.04
Low_logP (Gene FBXL17): 0.45
High_lfc (Gene FBXL18): 0.05
High_logP (Gene FBXL18): 0.34
